The source of these data is US12584173B2, “Methods for disease treatment and drug discovery” (The Scripps Research Institute, priority 2018, dated 2026).

Assay [1] concerns the target CFTR (Homo sapiens, UniProt P13569, DEL508-508). As to conditions: cited from earlier work.
The test system of assay [2] is NPC1. Briefly: NPC1 variant trafficking index (TrIdx, endo H resistance) in NPC1 null cell lines. The assay is classed as cell-based, human. The text has this:
(§1) NPC1 is composed of multiple domains that harbor the different variants contributing to disease. Given the heterozygous allelic composition of most NPC1 primary fibroblasts that compromise interpretation of the impact of a specific allele on disease progression, we silenced NPC1 expression with shRNA to generate stable null cell lines. These null cell lines were transiently transfected with a sparse collection of plasmids that each harbor one of 48 distinct NPC1 disease-associated variants in NPC1 distributed among the various NPC1 domains. […] We binned this sparse collection of variants into 4 functional classes (Cass I-IV). Class I variants lack polypeptide expression in response to non-sense and/or splicing (truncation) mutations (null), Class II missense variants are largely ER retained (defined as <0.2 TrIdx), Class III missense variants show an intermediate level of trafficking (defined as 0.2 to 0.5 TrIdx) and Class IV missense variants have a level of trafficking >0.5 TrIdx indicating significant export from the ER. […] The impact of cholesterol (ChoI) storage in the LE/LY for each of these variants was measured using automated high content screening image analysis based on filipin staining.
(§2) Each of the 48 NPC1 variants was examined for the impact of SAHA on both TrIdx and ChoI in the LE/LY. […] The effects of HDACi were NPC1-dependent as restoration of ChoI homeostasis by SAHA was not observed in fibroblasts lacking NPC1 and in null cell-lines lacking NPC1.

Assay [3] has as its system NPC1. As to conditions: cited from earlier work.
Assay [4] concerns NPC1. In words: cholesterol storage in LE/LY by filipin staining, high content image analysis. The format is cell-based, human.
Excerpt: as §1, §2

Sequence of CFTR (P13569 with tags, fused parts or gaps DEL508-508): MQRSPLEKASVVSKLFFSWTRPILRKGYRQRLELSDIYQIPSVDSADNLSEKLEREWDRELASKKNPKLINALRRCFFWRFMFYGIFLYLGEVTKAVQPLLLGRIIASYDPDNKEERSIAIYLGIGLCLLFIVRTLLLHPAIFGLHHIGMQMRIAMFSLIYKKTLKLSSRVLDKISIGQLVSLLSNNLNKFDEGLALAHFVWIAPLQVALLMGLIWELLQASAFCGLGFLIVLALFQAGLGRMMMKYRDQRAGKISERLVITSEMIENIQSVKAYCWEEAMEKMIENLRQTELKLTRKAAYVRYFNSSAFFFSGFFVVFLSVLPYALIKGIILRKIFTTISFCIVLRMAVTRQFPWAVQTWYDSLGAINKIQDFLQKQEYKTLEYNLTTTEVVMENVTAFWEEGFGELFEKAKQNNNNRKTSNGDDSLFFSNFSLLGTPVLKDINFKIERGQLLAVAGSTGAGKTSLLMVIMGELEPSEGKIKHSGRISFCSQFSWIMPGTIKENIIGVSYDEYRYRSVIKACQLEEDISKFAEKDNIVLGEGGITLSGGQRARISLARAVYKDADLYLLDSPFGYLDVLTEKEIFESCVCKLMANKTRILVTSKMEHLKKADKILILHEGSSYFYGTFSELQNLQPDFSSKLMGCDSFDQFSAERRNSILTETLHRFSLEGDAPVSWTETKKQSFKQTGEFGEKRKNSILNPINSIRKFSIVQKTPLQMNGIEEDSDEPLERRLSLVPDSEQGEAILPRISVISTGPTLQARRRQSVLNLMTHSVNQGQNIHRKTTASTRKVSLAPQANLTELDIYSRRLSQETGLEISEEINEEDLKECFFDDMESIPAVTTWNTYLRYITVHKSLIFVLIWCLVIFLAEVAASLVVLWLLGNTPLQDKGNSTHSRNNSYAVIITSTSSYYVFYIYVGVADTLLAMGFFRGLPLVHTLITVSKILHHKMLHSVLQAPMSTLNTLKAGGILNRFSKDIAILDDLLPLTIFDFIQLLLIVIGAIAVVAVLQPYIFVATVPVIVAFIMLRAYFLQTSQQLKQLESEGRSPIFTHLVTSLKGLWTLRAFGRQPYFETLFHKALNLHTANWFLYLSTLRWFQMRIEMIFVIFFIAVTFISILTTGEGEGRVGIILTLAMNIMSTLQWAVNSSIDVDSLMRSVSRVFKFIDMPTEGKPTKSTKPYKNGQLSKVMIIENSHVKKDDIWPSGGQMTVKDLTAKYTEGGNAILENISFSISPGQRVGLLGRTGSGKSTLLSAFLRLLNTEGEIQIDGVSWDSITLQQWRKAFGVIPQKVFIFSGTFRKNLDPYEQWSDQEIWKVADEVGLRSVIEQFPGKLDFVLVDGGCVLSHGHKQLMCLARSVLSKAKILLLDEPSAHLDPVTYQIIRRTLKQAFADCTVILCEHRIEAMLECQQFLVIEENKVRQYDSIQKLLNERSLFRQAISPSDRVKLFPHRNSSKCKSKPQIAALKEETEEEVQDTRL

`CC(C)(C)c1cc(C(C)(C)C)c(NC(=O)c2c[nH]c3ccccc3c2=O)cc1O` [Ivacaftor]: in assay [1], the “effect on export or function of F508del” value is reported as “no effect”.

Take `O=C(CCCCCCC(=O)Nc1ccccc1)NO` [SAHA, Vorinostat]: the TrIdx result in assay [2] (NPC1 H510P) was “inability of SAHA to improve”; in assay [2] (NPC1 P532L), “improved”; in assay [2] (NPC1 R518Q), “large improvement”. In assay [2] (majority of NPC1 variants with a TrIdx<0.2), the “TrIdx class after treatment” value is on record as “at least a Class III TrIdx”. Besides, the trafficking entry in assay [2] (variants involved in the predicted path of cholesterol flow, TM region) is “not changed”. Also, the “correction of the I1061T phenotype (protein stabilized for export to LE/LY, improved cholesterol homeostasis)” value in assay [3] is “correct the I1061T phenotype”. The ChoI entry in assay [4] (NPC1 H510P) is recorded as “lack of significant correction”; in assay [4] (NPC1 P532L), “improved”. Also, the cholesterol homeostasis result in assay [4] (NPC1 R518Q) is listed as “does not significantly improve”. Besides, in assay [4] (NPC1 V950M, S954L, P1007A and T1036M (CLD5, late age of neurological onset cluster)), the response to treatment result was “highly responsive”. In addition, the “restoration of ChoI homeostasis” value in assay [4] (fibroblasts lacking NPC1 and null cell-lines lacking NPC1) is recorded as “not observed”. Also, the “cholesterol homeostasis of NPC1 variants” value in assay [4] (in all domains) is recorded as “significantly restored”. In addition, the cholesterol storage state result in assay [4] (variants along the predicted cholesterol flow path (R1077Q, Y1088C, W1145R, Y634C, P691S, L1191F)) was “improved to level of WT or even better than WT”.
